Columns and labels:
[1] = system: MCD diet fatty liver rats given E coli endotoxin (LPS); assay: Methionine-choline-deficient (MCD) diet rat model with LPS second hit; assay type: in vivo, Sprague Dawley rats; details: for Prevention of liver injury following LPS in fatty liver rats: 0-30 mg/kg oral, FIG. 5; for Serum ALT change, in words: 6 h after LPS, p<0.05
Procedure: 20 Sprague Dawley rats were administered with Compound A by oral gavage once daily at 0, 5, 10, 20 or 30 mg/kg (4 rats/group) for 4 weeks. All animals were fed a methionine/choline deficient (MCD) diet (from Dyets, Inc) five times per week during the feeding period in order to produce a diet-induced fatty liver. Rats were weighed daily as well as food intake. At the end of four weeks, the rats were administered 2 mg/kg E coli endotoxin (LPS) IP and 6 hours later the rats were euthanized and liver tissue and serum collected. Liver and was harvested at time of death as was blood. Histology samples were also taken.

[2] = system: MCD diet fatty liver rats given E coli endotoxin (LPS); assay: as above; assay type: in vivo, Sprague Dawley rats; details: 6 h after LPS 2 mg/kg IP, n=3, not statistically significant
[3] = system: p38 MAP kinase phosphorylation in Kupffer cells; assay: LPS-induced p38 MAP kinase phosphorylation in Kupffer cells; assay type: cell-based, rat; details: Compound A 100 ng/mL; 5 and 20 min; n=3 replicates; FIG. 2
STAM model of NASH = assay: In vivo efficacy study in STAM model of NASH; design: Steatosis score / Inflammation score / Ballooning score: scale not given here; details: for NAS (NAFLD Activity Score) compared with the Vehicle group, in words: HE-stained liver sections; for NAS (NAFLD Activity Score) compared with the Vehicle group, in words / Fibrosis area (Sirius red-positive area) compared with the Vehicle group: week 9; for Fibrosis area (Sirius red-positive area) compared with the Vehicle group: Sirius red-stained liver sections; for Ballooning score / Inflammation score / NAS (NAFLD activity score) / Steatosis score: mean ± SEM, twice daily from 6 to 9 weeks of age, Telmisartan 10 mg/kg oral, nalmefene/naltrexone 5 mg/kg s.c.
Text: FIG. 3 sets out representative photomicrographs of HE-stained sections of livers from STAM model of NASH. Sections were cut from paraffin blocks of liver tissue prefixed in Bouin's solution and stained with Lillie-Mayer's Hematoxylin and eosin solution.
To visualize collagen deposition, Bouin's-fixed left lateral liver sections were stained using picro-Sirius red solution (Waldeck, Germany). b) For quantitative analysis of fibrosis area, bright field images of Sirius red-stained sections were captured around the central vein using a digital camera (DFC295; Leica, Germany) at 200-fold magnification, and the positive areas in 5 fields/section were measured using ImageJ software (National Institute of Health, USA). Individual values and mean±SEM for each treatment group are presented.
General Procedure NASH was induced in male C57BL/6 mice by a single subcutaneous injection of 200 μg streptozotocin solution 2 days after birth and feeding with high fat diet (HFD, 57 kcal % fat, Cat# HFD32, CLEA Japan, Japan) after 4 weeks of age. The animals were divided into groups of six each and were orally administered vehicle (1% Tween80) at 10 mL/kg or Telmisartan at 10 mg/kg twice daily from 6 to 9 weeks of age. […] The animals were sacrificed at week 9.

Kupffer cells = assay: LPS-stimulated release of TNF-α in Kupffer cells; assay type: cell-based, rat; details: E. coli LPS; supernatant TNF-α at 2, 4, 6 hours; FIG. 1
Procedure: Kupffer cells were isolated by enzymatic digestion and purified by centrifugal elutriation from normal rats and cultured overnight. They were then stimulated with E. coli LPS either without or with Compound A added to the medium. TNF-α content in the supernatant was measured at 2, 4, and 6 hours.

Structure (SMILES) | Prevention of liver injury following LPS in fatty liver rats [1] | Prevention of liver injury following LPS in fatty liver rats ([1]; listed as Nalmefene) | Serum ALT change, in words ([1]; 20 mg/kg oral once daily 4 weeks) | Serum ALT ([1]; 30 mg/kg oral once daily 4 weeks, 6 h after LPS 2 mg/kg IP) | Serum ALT change, in words ([1]; 30 mg/kg oral once daily 4 weeks) | Liver histopathology finding ([1]; MCD and Compound A treated rats, FIG. 7) | Liver histopathology finding ([1]; MCD+LPS+Compound A treated rats, FIG. 7) | Hepatic fat accumulation (histopathology) ([1]; treated rats compared to control, FIG. 7) | Decrease of elevated serum ALT levels ([2]; 5 mg/kg oral once daily 4 weeks) | Decrease of elevated serum ALT levels ([2]; 10 mg/kg oral once daily 4 weeks) | LPS-induced p38 MAP kinase phosphorylation [3] | Mortality during the treatment period (STAM model of NASH; 5 mg/kg s.c. twice daily, before week 9) | NAS (NAFLD Activity Score) compared with the Vehicle group, in words (STAM model of NASH) | Fibrosis area (Sirius red-positive area) compared with the Vehicle group (STAM model of NASH) | Ballooning score (STAM model of NASH) | Inflammation score (STAM model of NASH) | NAS (NAFLD activity score) (STAM model of NASH) | Steatosis score (STAM model of NASH) | LPS/time-dependent increase in TNF-α released by Kupffer cells (Kupffer cells) | Mean body weight during the treatment period (STAM model of NASH; 6 to 9 weeks of age)
C=C1CC[C@@]2(O)C3Cc4ccc(O)c5c4C2(CCN3CC2CC2)C1O5 (stereo in doubt) [Compound A, 17-cyclopropylmethyl-4,5α-epoxy-6-methylenemorphinan-3,14-diol] | dose-dependent prevention of liver injury | demonstrated efficacy in preventing inflammatory liver damage | further decrease that was significant | 94.9+/−5.5 U/L | further decrease that was significant | slight periportal chronic inflammation (mild nonspecific chronic hepatitis) | slight periportal chronic inflammation | prevents hepatic fat accumulation | ~50% | ~50% | reduced | one out of six mice was found dead | tended to show decrease | tended to shown decrease | 0.40 ± 0.24 | 1.80 ± 0.20 | 3.00 ± 0.63 | 0.80 ± 0.49 | inhibited | –
O=C1CC[C@@]2(O)C3Cc4ccc(O)c5c4C2(CCN3CC2CC2)C1O5 (stereo in doubt) [Compound B, 17-cyclopropylmethyl-4,5α-epoxy-6-oxomorphinan-3,14-diol] | – | – | – | – | – | – | – | – | – | – | – | – | significant decreases | significantly decreased | 0.00 ± 0.00 | 1.67 ± 0.33 | 2.17 ± 0.40 | 0.50 ± 0.22 | – | –
CCCc1nc2c(C)cc(-c3nc4ccccc4n3C)cc2n1Cc1ccc(-c2ccccc2C(=O)O)cc1 [Telmisartan] | – | – | – | – | – | – | – | – | – | – | – | – | significant decreases | significantly decreased | 1.00 ± 0.26 | 1.17 ± 0.48 | 2.67 ± 0.56 | 0.50 ± 0.22 | – | gradually decreased
